According to patent US10717729B2, “Thiamine-organic acid salt” (Purdue Research Foundation, priority 2018, dated 2020):
Structures can show the parent of a compound that is named as a salt.

Columns and labels:
[1] = dynamic moisture sorption, 25° C.
Description: Moisture sorption profiles were generated at 25° C. using an SGA-100 symmetrical gravimetric analyzer (TA Instrument, New Castle, Del.). The samples (5-20 mg) were exposed to 25% to 95% relative humidity (RH) at step size of 5% RH and from 95 to 99% RH at step size of 1% RH, with a maximum step time of 360 min. The equilibrium criteria were set to change of mass of less than 0.01% (w/w) for 5 min for each step. Nitrogen was used as the purge gas.

stability in solution | relative humidity at which high/elevated hygroscopicity is seen [1] [% RH] | Structure (SMILES)
exhibit instability in solution | 95 | Cc1ncc(C[n+]2csc(CCO)c2C)c(N)n1 [Thiamine Cl HCl, thiamine chloride hydrochloride]
– | 88 | Cc1ncc(C[n+]2csc(CCO)c2C)c(N)n1.[Cl-] [Thiamine Cl, thiamine chloride]
